Assay results published in US6383479B1, “Neutrophil-activating factor” (Novartis AG, priority 1987, dated 2002).

Columns and labels:
Format in all cases: cell-based
human neutrophils [1] = test: stimulus-dependent exocytosis of granule contents by human neutrophils
Protocol: Neutrophils (5×10^6/ml) suspended in PBS/BSA are preincubated with or without cytochalasin B (5 μg/ml) at 37° for 5 min.
Granule release is then initiated by adding the stimulus, e.g. NAF or a standard stimulus. The reaction is stopped 15 min later by rapid cooling in ice followed by centrifugation to sediment the cells. Vitamin B12-binding protein, β-glucuronidase and lactate dehydrogenase are determined in the cell-free media and cell pellets, and the release of these constituents is calculated in percent of the total cellular content (B. Dewalt and M. Baggiolini, Methods Enzymol. 132 [1986] 267).
(§1) Natural and recombinant NAF are tested in parallel on human neutrophils. They elicit virtually identical changes in cytosolic free Ca^2+, yielding a maximum rise at a concentration as low as 3 nM (FIG. 15). A nearly identical concentration-dependent respiratory burst response is obtained with both preparations in the range of 1 to 30 nM as assessed by chemiluminescence. The equivalence between natural and recombinant NAF is also reflected by chemotaxis and exocytosis measurements. Chemotactic migration is observed between 0.1 and 10 nM with a maximum effect at 1 nM. (Table 6). With either peptide a significant release of vitamin B12-binding protein from the specific granules at 0.3 nM and of beta-glucuronidase from the azurophil granules at 1 nM is observed.

human neutrophils [2] = test: cytosolic free Ca2+ changes in quin-2 loaded human neutrophils; details: as low as
Protocol: Upper graphs: cytosolic free Ca^2+ changes induced by natural (left) and recombinant (right) NAF. Neutrophils (4×10^6 cells/ml) are loaded with 0.1 nmol quin-2/AM and then stimulated with 3 nM NAF (mark). Quin-2 saturation changes calibrated as described in V. Von Tscharner et al., J. Biol. Chem. 261 (1986) 10163-10168.
as §1

human neutrophils [3] = test: NAF-induced neutrophil chemotaxis (leading front migration); details: for leading front migration: random migration 61 ± 5 μm
Protocol: as §1

human neutrophils [4] = test: elastase release from human neutrophils pretreated with cytochalasin B (NAF activity); details: phosphocellulose fractions
Text: Human monocytes are isolated from buffy coats of donor blood (Swiss Red Cross Laboratory, Bern, Switzerland) by centrifugation through a Ficoll-Paque gradient. This method separates neutrophils from the so-called mononuclear cells, a mixture of monocytes (about 20%) and lymphocytes (about 80%). Three monocyte preparations are used: (i) the total mononuclear cell fraction, (ii) monocytes enriched from the mononuclear cell fraction by adherence, and (iii) 90% pure monocytes separated from the lymphocytes by centrifugal elutriation (G. Garotta et al., Biochem. Biophys. Res. Comm. 140 [1986] 948-954 and K. J. Clemetson et al., J. Exp. Med. 161 [1985] 972-983). The cells are cultured in MEM-PPL and stimulated with increasing concentrations (0.1 ng to 1 μg/ml) of LPS. At different times, aliquots of the culture media are sampled and NAF activity is determined as the capacity to induce the release of elastase from human neutrophils pretreated with cytochalasin B (B. Dewald et al., Biochem. Pharmacol. 36 [1987] 2505-2510).
Mononuclear cells obtained from donor blood buffy coats as described in Example 1 are cultured in MEM-PPL for 48 h in the presence of 100 ng/ml LPS in stirred culture bottles (1.5 liter, 5×10^6 cells/ml). […] Absorbance at 280 nm is monitored continuously as a measure of protein. […]

Substance | concentration giving significant release of beta-glucuronidase from the azurophil granules (human neutrophils [1]) [nM] | concentration giving significant release of vitamin B12-binding protein from the specific granules (human neutrophils [1]) [nM] | concentration yielding a maximum rise in cytosolic free Ca2+ (human neutrophils [2]) [nM] | concentration of maximum chemotactic effect (human neutrophils [3]) [nM] | leading front migration (human neutrophils [3]; NAF 0.1 nM) [μm] | leading front migration (human neutrophils [3]; NAF 1.0 nM) [μm] | leading front migration (human neutrophils [3]; NAF 10.0 nM) [μm] | elastase-releasing activity (human neutrophils [4])
natural NAF: NAF purified from culture fluid of LPS-stimulated human monocytes | 1 | 0.3 | 3 | 1 | 98 ± 6 | 123 ± 6 | 127 ± 3 | –
recombinant NAF: 72-amino-acid NAF obtained by recombinant DNA processes, expressed in E. coli | 1 | 0.3 | 3 | 1 | 88 ± 6 | 124 ± 3 | 126 ± 4 | –
interleukin-1 [IL-1] | – | – | – | – | – | – | – | no elastase-releasing activity
